One block for each compound: values may come before it. Activity calls are given as the source filed them. The calls are words filed in the database; no cut-off is given here.
Legend:
[1] = test system: von Hippel-Lindau disease tumor suppressor/Leucine-rich repeat serine/threonine-protein kinase 2 (Mus musculus), Q5S006+P40338 [R1441C]; assay: Protac activity at VHL/LRRK2 R1441C mutant in MEF cells assessed as induction of LRRK2 degradation incubated for 48 hrs by Western blot analysis; assay type: cell-based
[2] = target: T1, Leucine-rich repeat serine/threonine-protein kinase 2 (Homo sapiens, UniProt Q5S007); assay: Inhibition of recombinant human GST-tagged LRRK2 (970 to 2527 residues) expressed in insect cells using LRRKtide as substrate measured after 1 hr by Adapta TR-FRET assay; parameters: species or system Insect cell
T1 sequence (Q5S007 whole entry, the tested form may be a part): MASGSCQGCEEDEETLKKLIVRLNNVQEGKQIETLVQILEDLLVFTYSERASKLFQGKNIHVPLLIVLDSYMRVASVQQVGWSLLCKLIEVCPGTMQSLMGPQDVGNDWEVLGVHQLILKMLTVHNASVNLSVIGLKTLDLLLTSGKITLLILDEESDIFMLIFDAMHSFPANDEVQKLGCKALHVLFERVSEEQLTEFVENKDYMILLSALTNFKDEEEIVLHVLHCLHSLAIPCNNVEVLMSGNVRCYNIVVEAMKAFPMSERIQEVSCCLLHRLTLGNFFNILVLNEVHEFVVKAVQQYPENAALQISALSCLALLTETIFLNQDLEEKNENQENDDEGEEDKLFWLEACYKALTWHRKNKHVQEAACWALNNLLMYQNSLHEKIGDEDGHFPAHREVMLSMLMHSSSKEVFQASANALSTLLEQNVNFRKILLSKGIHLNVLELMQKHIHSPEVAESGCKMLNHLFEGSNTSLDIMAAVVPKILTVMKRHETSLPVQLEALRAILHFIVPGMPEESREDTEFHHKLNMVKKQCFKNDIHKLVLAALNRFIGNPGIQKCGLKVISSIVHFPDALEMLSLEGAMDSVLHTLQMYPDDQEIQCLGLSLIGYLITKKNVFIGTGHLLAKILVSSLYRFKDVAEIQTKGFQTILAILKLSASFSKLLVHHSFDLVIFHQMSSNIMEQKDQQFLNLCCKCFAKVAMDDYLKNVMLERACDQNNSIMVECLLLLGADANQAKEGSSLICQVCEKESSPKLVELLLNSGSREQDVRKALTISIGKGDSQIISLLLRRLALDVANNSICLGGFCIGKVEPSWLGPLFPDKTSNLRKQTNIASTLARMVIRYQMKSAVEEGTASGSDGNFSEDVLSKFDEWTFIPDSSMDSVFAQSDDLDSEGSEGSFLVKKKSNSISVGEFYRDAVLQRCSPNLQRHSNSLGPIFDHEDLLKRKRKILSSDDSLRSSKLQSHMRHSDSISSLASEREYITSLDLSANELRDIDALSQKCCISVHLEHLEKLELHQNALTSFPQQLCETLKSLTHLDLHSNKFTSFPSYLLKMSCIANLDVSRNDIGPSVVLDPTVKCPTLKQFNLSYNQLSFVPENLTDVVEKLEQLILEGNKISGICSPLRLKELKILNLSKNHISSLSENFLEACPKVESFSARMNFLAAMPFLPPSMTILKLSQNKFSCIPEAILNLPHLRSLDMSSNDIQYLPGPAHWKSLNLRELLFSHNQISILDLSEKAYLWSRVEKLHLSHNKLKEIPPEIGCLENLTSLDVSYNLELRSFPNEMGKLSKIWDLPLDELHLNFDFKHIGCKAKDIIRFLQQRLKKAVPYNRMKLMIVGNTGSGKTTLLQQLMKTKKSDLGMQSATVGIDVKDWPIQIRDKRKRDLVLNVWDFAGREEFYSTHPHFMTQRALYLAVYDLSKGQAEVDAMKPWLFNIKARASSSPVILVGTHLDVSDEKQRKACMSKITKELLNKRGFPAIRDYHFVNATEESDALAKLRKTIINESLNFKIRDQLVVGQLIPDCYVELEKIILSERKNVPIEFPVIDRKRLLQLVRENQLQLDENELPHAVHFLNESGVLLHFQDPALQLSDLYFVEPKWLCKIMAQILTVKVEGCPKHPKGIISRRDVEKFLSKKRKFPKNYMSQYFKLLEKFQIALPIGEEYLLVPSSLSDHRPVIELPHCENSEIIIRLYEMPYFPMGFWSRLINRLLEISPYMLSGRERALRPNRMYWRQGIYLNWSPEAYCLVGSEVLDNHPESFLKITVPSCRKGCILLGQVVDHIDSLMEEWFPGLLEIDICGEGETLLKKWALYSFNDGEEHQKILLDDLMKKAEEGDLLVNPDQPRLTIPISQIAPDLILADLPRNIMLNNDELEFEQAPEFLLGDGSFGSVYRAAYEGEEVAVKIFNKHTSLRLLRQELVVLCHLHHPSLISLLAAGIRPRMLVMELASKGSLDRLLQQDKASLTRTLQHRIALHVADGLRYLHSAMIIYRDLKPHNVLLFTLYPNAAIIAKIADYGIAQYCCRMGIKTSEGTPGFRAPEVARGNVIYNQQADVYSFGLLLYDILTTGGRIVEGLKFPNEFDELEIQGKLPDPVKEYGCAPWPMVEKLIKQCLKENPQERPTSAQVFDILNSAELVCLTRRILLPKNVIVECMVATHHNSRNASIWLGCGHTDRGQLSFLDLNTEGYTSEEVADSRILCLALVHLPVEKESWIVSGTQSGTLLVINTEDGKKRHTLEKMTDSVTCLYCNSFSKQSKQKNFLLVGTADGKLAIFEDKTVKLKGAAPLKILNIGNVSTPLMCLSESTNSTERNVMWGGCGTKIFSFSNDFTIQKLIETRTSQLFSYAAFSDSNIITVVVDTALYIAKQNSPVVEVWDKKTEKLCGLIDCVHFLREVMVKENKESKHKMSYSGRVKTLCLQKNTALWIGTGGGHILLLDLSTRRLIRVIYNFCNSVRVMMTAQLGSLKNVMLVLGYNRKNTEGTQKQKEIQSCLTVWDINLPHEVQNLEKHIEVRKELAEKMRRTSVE

[3] = target: von Hippel-Lindau disease tumor suppressor/Leucine-rich repeat serine/threonine-protein kinase 2 (Mus musculus) (UniProt Q5S006+P40338); assay: Protac activity at VHL/LRRK2 in MEF cells assessed as induction of LRRK2 degradation measured after 48 hrs by Western blot analysis; assay type: cell-based
[4] = target: Leucine-rich repeat serine/threonine-protein kinase 2 (Homo sapiens, UniProt Q5S007, G2019S); assay: Inhibition of recombinant human GST-tagged LRRK2 G2019S mutant (970 to 2527 residues) expressed in insect cells using LRRKtide as substrate measured after 1 hr by Adapta TR-FRET assay; parameters: species or system Insect cell
Leucine-rich repeat serine/threonine-protein kinase 2 (Homo sapiens, UniProt Q5S007, G2019S), sequence (Q5S007 whole entry G2019S, the tested form may be a part): as the sequence (Q5S007 whole entry, the tested form may be a part) above, with G2019S counted along it

[5] = target: Leucine-rich repeat serine/threonine-protein kinase 2 (Mus musculus) (UniProt Q5S006); assay: Inhibition of LRRK2 in MEF cells assessed as reduction in pS935 phosphorylation measured after 24 to 48 hrs by Western blot analysis; assay type: cell-based; settings: time 24-48 hrs
[6] = target: T2, Protein cereblon/Cyclin-G-associated kinase (Mus musculus) (UniProt Q8C7D2+Q99KY4); assay: Induction of GAK degradation in MEF cells at 1 uM measured after 48 hrs by Western blot analysis; assay type: cell-based
T2 sequence (Q8C7D2 whole entry, looked up): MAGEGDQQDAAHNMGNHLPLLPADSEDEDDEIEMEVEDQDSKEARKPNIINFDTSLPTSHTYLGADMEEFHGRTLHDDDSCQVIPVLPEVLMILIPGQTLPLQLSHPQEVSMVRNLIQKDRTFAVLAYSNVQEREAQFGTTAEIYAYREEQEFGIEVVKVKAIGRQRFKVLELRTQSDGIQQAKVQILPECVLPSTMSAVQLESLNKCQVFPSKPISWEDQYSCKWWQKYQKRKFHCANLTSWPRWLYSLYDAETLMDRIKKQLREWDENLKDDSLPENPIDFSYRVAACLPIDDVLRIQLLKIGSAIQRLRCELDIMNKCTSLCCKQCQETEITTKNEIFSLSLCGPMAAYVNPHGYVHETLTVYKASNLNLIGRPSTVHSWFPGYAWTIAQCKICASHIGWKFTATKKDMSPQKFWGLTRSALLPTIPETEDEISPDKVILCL
T2 sequence (Q99KY4 whole entry, looked up): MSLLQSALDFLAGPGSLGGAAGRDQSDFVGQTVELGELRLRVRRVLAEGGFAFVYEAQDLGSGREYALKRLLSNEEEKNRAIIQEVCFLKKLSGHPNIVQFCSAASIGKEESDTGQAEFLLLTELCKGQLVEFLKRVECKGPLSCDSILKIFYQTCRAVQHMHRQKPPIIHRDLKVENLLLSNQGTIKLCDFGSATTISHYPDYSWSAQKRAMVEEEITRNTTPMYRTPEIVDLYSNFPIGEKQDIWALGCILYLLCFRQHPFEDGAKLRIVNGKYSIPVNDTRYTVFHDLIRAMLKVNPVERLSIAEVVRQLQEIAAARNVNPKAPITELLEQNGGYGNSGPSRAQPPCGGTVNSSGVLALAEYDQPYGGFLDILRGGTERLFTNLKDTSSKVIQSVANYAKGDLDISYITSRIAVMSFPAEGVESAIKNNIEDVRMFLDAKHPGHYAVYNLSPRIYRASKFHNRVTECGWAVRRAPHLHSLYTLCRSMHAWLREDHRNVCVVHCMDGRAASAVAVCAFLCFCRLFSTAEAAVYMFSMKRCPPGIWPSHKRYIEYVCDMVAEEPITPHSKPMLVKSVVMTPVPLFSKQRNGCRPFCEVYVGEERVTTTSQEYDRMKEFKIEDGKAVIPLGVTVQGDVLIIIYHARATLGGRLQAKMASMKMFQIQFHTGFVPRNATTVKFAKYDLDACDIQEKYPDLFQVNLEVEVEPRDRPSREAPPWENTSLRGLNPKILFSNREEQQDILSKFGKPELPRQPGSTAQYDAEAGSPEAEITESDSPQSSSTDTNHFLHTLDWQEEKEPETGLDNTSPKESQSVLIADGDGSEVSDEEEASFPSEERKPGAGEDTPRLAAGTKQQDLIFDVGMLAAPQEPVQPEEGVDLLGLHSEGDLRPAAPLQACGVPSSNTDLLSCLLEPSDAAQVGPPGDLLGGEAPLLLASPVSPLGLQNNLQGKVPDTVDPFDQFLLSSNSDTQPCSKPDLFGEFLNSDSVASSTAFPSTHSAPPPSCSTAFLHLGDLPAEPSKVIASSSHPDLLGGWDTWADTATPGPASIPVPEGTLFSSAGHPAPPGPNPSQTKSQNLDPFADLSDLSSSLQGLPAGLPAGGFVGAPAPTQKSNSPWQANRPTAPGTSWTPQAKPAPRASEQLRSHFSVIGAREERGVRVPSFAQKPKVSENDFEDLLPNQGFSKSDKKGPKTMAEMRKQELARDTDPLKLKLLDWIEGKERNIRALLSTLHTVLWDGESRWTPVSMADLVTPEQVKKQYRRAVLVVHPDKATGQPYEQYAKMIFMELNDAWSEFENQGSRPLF

[7] = target: Leucine-rich repeat serine/threonine-protein kinase 2 (Mus musculus) (UniProt Q5S006); assay: Induction of LRRK2 degradation in MEF cells by Western blot analysis; assay type: cell-based
[8] = target: T3, Protein cereblon/Leucine-rich repeat serine/threonine-protein kinase 2 (Mus musculus) (UniProt Q5S006+Q8C7D2); assay: Protac activity at CRBN/LRRK2 in MEF cells assessed as induction of LRRK2 degradation at 10 to 1000 nM incubated for 1 to 48 hrs by Western blot analysis; assay type: cell-based; settings: dose 10-1000 nM, time 1-48 hrs
[9] = target: Leucine-rich repeat serine/threonine-protein kinase 2 (Mus musculus) (UniProt Q5S006); assay: Induction of LRRK2 degradation in MEF cells at 100 nM measured after 2 hrs by Western blot analysis; assay type: cell-based
[10] = target: Protein cereblon/Leucine-rich repeat serine/threonine-protein kinase 2 (Homo sapiens) (UniProt Q5S007+Q96SW2); assay: Protac activity at CRBN/LRRK2 in human MOLT-4 cells assessed as induction of LRRK2 degradation at 1 uM by proteomic analysis; assay type: cell-based
Protein cereblon/Leucine-rich repeat serine/threonine-protein kinase 2 (Homo sapiens), sequence (Q5S007 whole entry, looked up): as the sequence (Q5S007 whole entry, the tested form may be a part) above
Protein cereblon/Leucine-rich repeat serine/threonine-protein kinase 2 (Homo sapiens), sequence (Q96SW2 whole entry, looked up): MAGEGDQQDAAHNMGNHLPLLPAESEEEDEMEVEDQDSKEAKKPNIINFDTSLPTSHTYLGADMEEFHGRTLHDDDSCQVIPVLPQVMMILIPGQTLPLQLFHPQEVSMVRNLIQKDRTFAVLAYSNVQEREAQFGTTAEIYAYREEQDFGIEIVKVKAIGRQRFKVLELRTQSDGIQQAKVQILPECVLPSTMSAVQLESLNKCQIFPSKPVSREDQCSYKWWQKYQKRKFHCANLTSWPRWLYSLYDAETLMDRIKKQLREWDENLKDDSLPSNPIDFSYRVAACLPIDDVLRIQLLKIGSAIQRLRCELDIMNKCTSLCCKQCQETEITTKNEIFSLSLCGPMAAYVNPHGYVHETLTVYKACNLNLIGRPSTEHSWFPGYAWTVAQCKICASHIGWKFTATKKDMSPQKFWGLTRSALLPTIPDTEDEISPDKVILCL

[11] = target: T3, Protein cereblon/Leucine-rich repeat serine/threonine-protein kinase 2 (Mus musculus); assay: Protac activity at CRBN/LRRK2 in MEF cells assessed as induction of LRRK2 degradation at 1 uM incubated for 48 hrs in the presence of MLi-2 by Western blot analysis; assay type: cell-based
[12] = target: T3, Protein cereblon/Leucine-rich repeat serine/threonine-protein kinase 2 (Mus musculus); assay: Protac activity at CRBN/LRRK2 in MEF cells assessed as induction of LRRK2 degradation at 1000 nM incubated for 48 hrs by Western blot analysis; assay type: cell-based
[13] = target: Leucine-rich repeat serine/threonine-protein kinase 2 (Mus musculus) (UniProt Q5S006); assay: Inhibition of LRRK2 in MEF cells assessed as reduction in Rab10 phosphorylation at 10 to 1000 nM measured after 24 to 48 hrs by Western blot analysis; assay type: cell-based; settings: dose 10-1000 nM, time 24-48 hrs
[14] = target: Protein cereblon/Zinc finger protein Aiolos (Homo sapiens) (UniProt Q96SW2+Q9UKT9); assay: Protac activity at CRBN/IKZF3 in human MOLT-4 cells assessed as induction of IKZF3 degradation at 1 uM by proteomic analysis; assay type: cell-based
[15] = target: T3, Protein cereblon/Leucine-rich repeat serine/threonine-protein kinase 2 (Mus musculus); assay: Protac activity at CRBN/LRRK2 in MEF cells assessed as induction of LRRK2 degradation at 1 uM incubated for 48 hrs in presence of cereblon degrader ZXH-03-153 by Western blot analysis; assay type: cell-based
[16] = target: T1, Leucine-rich repeat serine/threonine-protein kinase 2; assay: Inhibition of human wild-type partial length LRRK2 (H970 to E2527 residues) expressed in mammalian expression system at 1 uM by Kinomescan assay relative to control
[17] = target: T3, Protein cereblon/Leucine-rich repeat serine/threonine-protein kinase 2 (Mus musculus); assay: Protac activity at CRBN/LRRK2 in MEF cells assessed as induction of LRRK2 degradation at 1 uM incubated for 48 hrs by Western blot analysis; assay type: cell-based
[18] = target: Protein cereblon/E3 ubiquitin-protein ligase ZFP91 (Homo sapiens) (UniProt Q96SW2+Q96JP5); assay: Protac activity at CRBN/ZFP91 in human MOLT-4 cells assessed as induction of ZFP91 degradation at 1 uM by proteomic analysis; assay type: cell-based
[19] = target: T2, Protein cereblon/Cyclin-G-associated kinase (Mus musculus); assay: Protac activity at CRBN/GAK in LRRK2 knockout MEF cells assessed as induction of GAK degradation at 1 uM measured after 48 hrs by Western blot analysis; assay type: cell-based
[20] = target: Cereblon/Ikaros (Homo sapiens) (UniProt Q96SW2+Q13422); assay: Protac activity at CRBN/IKZF1 in human MOLT-4 cells assessed as induction of IKZF1 degradation at 1 uM by proteomic analysis; assay type: cell-based
[21] = test system: Protein cereblon/Leucine-rich repeat serine/threonine-protein kinase 2 (Mus musculus), Q5S006+Q8C7D2 [R1441C]; assay: Protac activity at CRBN/LRRK2 R1441C mutant in MEF cells assessed as induction of LRRK2 degradation at 1 uM incubated for 48 hrs in presence of MLi-2 by Western blot analysis; assay type: cell-based
[22] = target: T2, Protein cereblon/Cyclin-G-associated kinase (Mus musculus); assay: Protac activity at CRBN/GAK in MEF cells assessed as induction of GAK degradation at 1 uM measured after 48 hrs by Western blot analysis; assay type: cell-based
[23] = test system: Protein cereblon/Leucine-rich repeat serine/threonine-protein kinase 2 (Mus musculus), Q5S006+Q8C7D2 [R1441C]; assay: Protac activity at CRBN/LRRK2 R1441C mutant in MEF cells assessed as induction of LRRK2 degradation at 1 uM incubated for 48 hrs in presence of cereblon degrader ZXH-03-153 by Western blot analysis; assay type: cell-based
[24] = test system: Leucine-rich repeat serine/threonine-protein kinase 2 (Homo sapiens), Q5S007 [G2019S]; assay: Inhibition of human partial length LRRK2 G2019S mutant (H970 to E2527 residues) expressed in mammalian expression system at 1 uM by Kinomescan assay relative to control
Leucine-rich repeat serine/threonine-protein kinase 2 (Homo sapiens), Q5S007 [G2019S], sequence (Q5S007 whole entry G2019S, the tested form may be a part): as the sequence (Q5S007 whole entry, the tested form may be a part) above, with G2019S counted along it

[25] = test system: Protein cereblon/Leucine-rich repeat serine/threonine-protein kinase 2 (Mus musculus), Q5S006+Q8C7D2 [R1441C]; assay: Protac activity at CRBN/LRRK2 R1441C mutant in MEF cells assessed as induction of LRRK2 degradation at 1 uM incubated for 48 hrs by Western blot analysis; assay type: cell-based
[26] = target: Protein cereblon/Cyclin-G-associated kinase (Homo sapiens) (UniProt O14976+Q96SW2); assay: Protac activity at CRBN/GAK in human MOLT-4 cells assessed as induction of GAK degradation at 1 uM by proteomic analysis; assay type: cell-based
[27] = target: Leucine-rich repeat serine/threonine-protein kinase 2 (Mus musculus) (UniProt Q5S006); assay: Inhibition of LRRK2 in MEF cells assessed as reduction in pS935 phosphorylation at 10 to 1000 nM measured after 24 to 48 hrs by Western blot analysis; assay type: cell-based; settings: dose 10-1000 nM, time 24-48 hrs

Compound: CC1(Oc2ccc3[nH]nc(-c4cc(N5CCN(C(=O)CCOCCOCCNc6cccc7c6C(=O)N(C6CCCNC6=O)C7=O)CC5)ncn4)c3c2)CC1 (stereo not drawn)
Activity [1]: inactive
IC50 [2]: 2 nM
Activity [3]: inactive
IC50 [4]: 2 nM
inhibition [5]: Active

Compound: C[C@@H]1CN(c2cc(-c3n[nH]c4ccc(OC5(C)CC5)cc34)ncn2)C[C@H](C)O1
Activity [6]: inactive
Activity [7]: inactive

Compound: Nc1cccc2c1CN(C1CCC(=O)NC1=O)C2=O (stereo not drawn)
Activity [8]: Active

Compound: O=C1CCC(N2C(=O)c3cccc(NCCCCCNc4cccc5c4C(=O)N(C4CCC(=O)NC4=O)C5=O)c3C2=O)C(=O)N1 (stereo not drawn)
Activity [9]: Active

Compound: CC1(Oc2ccc3[nH]nc(-c4cc(N5CCN(C(=O)CCOCCOCCOCCOCCNc6cccc7c6C(=O)N(C6CCC(=O)NC6=O)C7=O)CC5)ncn4)c3c2)CC1 (stereo not drawn)
Activity [10]: Active
Activity [11]: inactive
Activity [12]: Active
inhibition [13]: Active
Activity [14]: Active
Activity [15]: inactive
inhibition [16]: > 85%
IC50 [2]: 1 nM
Activity [17]: Active
Activity [18]: Active
Activity [19]: Active
Activity [20]: Active
Activity [21]: inactive
IC50 [4]: 1 nM
Activity [22]: Active
Activity [23]: inactive
inhibition [24]: > 85%
Activity [25]: Active
Activity [26]: Active
inhibition [27]: Active

Compound: CC1(Oc2ccc3[nH]nc(-c4cc(N5CCN(C(=O)CCOCCNc6cccc7c6C(=O)N(C6CCC(=O)NC6=O)C7)CC5)ncn4)c3c2)CC1 (stereo not drawn)
Activity [8]: Active
IC50 [2]: 3 nM
IC50 [4]: 2 nM

Compound: CC1(Oc2ccc3[nH]nc(-c4cc(N5CCN(C(=O)CCOCCNc6cccc7c6C(=O)N(C6CCC(=O)NC6=O)C7=O)CC5)ncn4)c3c2)CC1 (stereo not drawn)
Activity [8]: Active
IC50 [2]: 2 nM
IC50 [4]: 1 nM

The remaining lines, values ahead:

Activity [8]: Active
IC50 [2]: 3 nM
IC50 [4]: 2 nM
Compound: CC1(Oc2ccc3[nH]nc(-c4cc(N5CCN(C(=O)CCOCCOCCNc6cccc7c6C(=O)N(C6CCC(=O)NC6=O)C7)CC5)ncn4)c3c2)CC1 (stereo not drawn)

IC50 [2]: 6 nM
IC50 [4]: 7 nM
Compound: Cc1ncsc1-c1ccc([C@@H](C)NC(=O)[C@H]2C[C@H](O)CN2C(=O)[C@H](NC(=O)CCOCCOCCOCCC(=O)N2CCN(c3cc(-c4n[nH]c5ccc(OC6(C)CC6)cc45)ncn3)CC2)C(C)(C)C)cc1

IC50 [2]: 3 nM
IC50 [4]: 4 nM
Compound: Cc1ncsc1-c1ccc([C@H](C)NC(=O)[C@@H]2C[C@@H](O)CN2C(=O)[C@@H](NC(=O)CCOCCOCCOCCOCCC(=O)N2CCN(c3cc(-c4n[nH]c5ccc(OC6(C)CC6)cc45)ncn3)CC2)C(C)(C)C)cc1

Activity [8]: Active
IC50 [2]: 3 nM
IC50 [4]: 3 nM
Compound: CC1(Oc2ccc3[nH]nc(-c4cc(N5CCN(C(=O)CCOCCOCCOCCOCCNc6cccc7c6C(=O)N(C6CCC(=O)NC6=O)C7)CC5)ncn4)c3c2)CC1 (stereo not drawn)

Activity [12]: Active
IC50 [2]: 1 nM
IC50 [4]: 1 nM
Compound: CC1(Oc2ccc3[nH]nc(-c4cc(N5CCN(C(=O)CCOCCOCCNc6cccc7c6C(=O)N(C6CCC(=O)NC6=O)C7=O)CC5)ncn4)c3c2)CC1 (stereo not drawn)

— ChEMBL document CHEMBL5365424, “Development of a highly potent and selective degrader of LRRK2” (Bioorg Med Chem Lett, 2023)
